How the values were obtained:
Test in all cases: CTG-3D luminescence at 96 h relative to day-0 seeding control (ratio to day 0); higher = more growth / less cytotoxicity; PDxO 3D drug screen, 96 h, CTG-3D normalised to day-0 seeding control.
MDA-MB-231 = tested on: MDA-MB-231
HCI-005.E2 = tested on: HCI-005.E2 (organoid from a breast cancer xenograft with a HER2-positive history)
HCI-017.E2 = tested on: HCI-017.E2 (organoid from an ER-positive breast cancer xenograft)
HCI-011.E2 = tested on: HCI-011.E2 (organoid from an ER-positive breast cancer xenograft)
HCI-008 = tested on: HCI-008 (organoid from a HER2-enriched breast cancer xenograft)
HCI-015 = tested on: HCI-015 (organoid from a triple-negative breast cancer xenograft)
HCI-027 = tested on: HCI-027 (organoid from a triple-negative breast cancer xenograft)

CC(C)(C(=O)NCC(F)(F)C(F)(F)F)C(=O)N[C@@H]1C(=O)Nc2ccccc2-c2ccccc21
CTG-3D luminescence at 96 h
Details | 12.5 pM | 0.00025 µM | 0.005 µM | 0.1 µM | 1 µM | 10 µM | 100 µM | 625 fM
HCI-005.E2 | 1.47 | 1.48 | 1.45 | 1.8 | 1.18 | 1.29 | 1.03 | 1.54
HCI-011.E2 | 1.55 | 1.61 | 1.49 | 1.97 | 1.71 | 2.01 | 1.76 | 1.94
HCI-017.E2 | 1.84 | 2.1 | 2.09 | 2.12 | 2.04 | 1.78 | 1.23 | 2.06
MDA-MB-231 | 4.58 | 4.53 | 4.6 | 4.48 | 4.6 | 4.7 | 4.04 | 4.6

CTG-3D luminescence at 96 h
Details | 12.5 pM | 0.00025 µM | 0.005 µM | 0.1 µM | 1 µM | 10 µM | 100 µM | 625 fM
HCI-008, days in culture: 228 | 1.74 | 1.41 | 1 | 1.3 | 1.17 | 1.68 | 1.05 | 1.81
HCI-008, days in culture: 244 | 1.18 | 1.67 | 1.24 | 1.59 | 1.45 | 1.45 | 0.931 | 2.05
HCI-011.E2, days in culture: 74 | 2.34 | 1.83 | 1.89 | 1.8 | 1.57 | 2.5 | 1.76 | 1.73
HCI-015, days in culture: 172 | 1.79 | 0.907 | 1.41 | 0.52 | 0.649 | 0.927 | 0.996 | 1.66
HCI-015, days in culture: 191 | 2.23 | 0.752 | 0.752 | 0.54 | 0.523 | 0.502 | 0.509 | 1.89
HCI-015, days in culture: 218 | 1.79 | 1.02 | 1.03 | 0.889 | 0.743 | 0.516 | 0.649 | 1.97
HCI-017.E2, days in culture: 85 | 2.5 | 2.8 | 2.42 | 1.44 | 1.19 | 1.24 | 1.25 | 2.29
HCI-027, days in culture: 176 | 2.35 | 1.45 | 1.79 | 0.289 | 0.192 | 0.176 | 0.165 | 1.96
HCI-027, days in culture: 194 | 1.64 | 1.41 | 1.38 | 0.35 | 0.281 | 0.486 | 0.484 | 1.55
HCI-027, days in culture: 201 | 2.24 | 1.62 | 1.57 | 0.358 | 0.288 | 0.407 | 0.247 | 1.99

C[C@@H]1COCCN1c1cc(C2([S@](C)(=N)=O)CC2)nc(-c2cc[nH]c3nccc2-3)n1 [ceralasertib]
CTG-3D luminescence at 96 h
Details | 12.5 pM | 0.00025 µM | 0.005 µM | 0.1 µM | 1 µM | 10 µM | 100 µM | 625 fM
HCI-005.E2 | 1.83 | 1.7 | 1.86 | 1.9 | 1.16 | 0.849 | 0.6 | 1.78
HCI-011.E2 | 1.56 | 1.76 | 1.56 | 1.78 | 1.42 | 1.02 | 0.326 | 1.89
HCI-017.E2 | 1.72 | 2.28 | 2.17 | 2.23 | 2.02 | 1.09 | 0.8168 | 2.165
MDA-MB-231 | 4.45 | 4.38 | 4.49 | 4.47 | 4.27 | 3.1 | 1.86 | 4.53

CTG-3D luminescence at 96 h
Details | 12.5 pM | 0.00025 µM | 0.005 µM | 0.1 µM | 1 µM | 10 µM | 100 µM | 625 fM
HCI-008, days in culture: 228 | 1.99 | 1.95 | 1.41 | 1.81 | 1.36 | 0.531 | 0.212 | 1.72
HCI-008, days in culture: 244 | 1.32 | 2.13 | 2.05 | 2.01 | 1.26 | 0.71 | 0.334 | 2.35
HCI-011.E2, days in culture: 74 | 2.18 | 2.33 | 1.97 | 1.85 | 1.53 | 0.982 | 0.237 | 1.86
HCI-015, days in culture: 172 | 2.39 | 2.46 | 2.2 | 1.24 | 2.01 | 0.531 | 0.385 | 2.27
HCI-015, days in culture: 191 | 1.99 | 1.33 | 1.19 | 1.08 | 1.25 | 0.413 | 0.258 | 1.52
HCI-015, days in culture: 218 | 1.79 | 1.5 | 1.72 | 1.55 | 1.2 | 0.408 | 0.265 | 1.58
HCI-017.E2, days in culture: 85 | 3.08 | 3.11 | 2.49 | 2.26 | 2.3 | 1.08 | 0.827 | 2.52
HCI-027, days in culture: 176 | 2 | 1.26 | 2.33 | 1.47 | 0.682 | 0.114 | 0.29 | 2.06
HCI-027, days in culture: 194 | 1.7 | 1.54 | 1.32 | 1.62 | 0.748 | 0.111 | 0.232 | 1.56
HCI-027, days in culture: 201 | 1.78 | 1.98 | 1.99 | 2.1 | 0.726 | 0.134 | 0.279 | 1.54

Source: the supplement of paper PMC8882468
